Source: ChEMBL document CHEMBL1128942, “Pyrrolylquinoxalinediones: A new class of AMPA receptor antagonists” (Bioorg Med Chem Lett, 1996)

Assays:
[1] = target: Glutamate receptor ionotropic, AMPA (Mus musculus, UniProt P23818+P23819+Q9Z2W8+Q9Z2W9)
Description: Compound was tested for binding affinity against Ionotropic glutamate receptor AMPA using [3H]AMPA as a radioligand.

Mus musculus [2] = assay: In vivo AMPA antagonistic activity was determined by measuring ability to antagonize AMPA induced lethal convulsions in mice at 60 min upon intraperitoneal administration; assay type: functional; details: ip, 1 h
Mus musculus [3] = assay: In vivo AMPA antagonistic activity was determined by measuring ability to antagonize AMPA induced lethal convulsions in mice at 15 min upon intraperitoneal administration; assay type: functional; details: ip, 0.25 h

Row | Compound | Ki [1] [µM] | ED50 (Mus musculus [2]) [mg/kg] | ED50 (Mus musculus [3]) [mg/kg]
1 | O=c1[nH]c2cc(Cl)c(-n3cccc3)cc2n(C2CCCCC2)c1=O | 10 |  | 
2 | O=C(Cn1c(=O)c(=O)[nH]c2cc([N+](=O)[O-])c(-n3cccc3)cc21)Nc1ccccc1 | 2.1 |  | 
3 | O=C(O)CCn1c(=O)c(=O)[nH]c2cc(C(F)(F)F)c(-n3cccc3)cc21 | 0.39 | > 50 | > 50
4 | CCOC(=O)CCn1c(=O)c(=O)[nH]c2cc([N+](=O)[O-])c(-n3cccc3)cc21 | 0.26 | 14 | > 30
5 | CS(=O)(=O)c1cc2[nH]c(=O)c(=O)n(C3CCCCC3)c2cc1-n1cccc1 | 15 |  | 
6 | CCOC(=O)Cn1c(=O)c(=O)[nH]c2cc([N+](=O)[O-])c(-n3cccc3)cc21 | 0.91 | 26 | > 50
7 | O=c1[nH]c2cc([N+](=O)[O-])c(-n3cccc3)cc2n(C2CC2)c1=O | 3.5 |  | 
8 | O=c1[nH]c2cc([N+](=O)[O-])c(-n3cccc3)cc2n(C2CCCCC2)c1=O | 0.4 | 22 | > 50
9 | COC(=O)Cn1c(=O)c(=O)[nH]c2cc(C(F)(F)F)c(-n3cccc3)cc21 | > 25 |  | 
10 | CCC(CC)Cn1c(=O)c(=O)[nH]c2cc([N+](=O)[O-])c(-n3cccc3)cc21 | 6 |  | 
11 | Oc1nc2cc(C(F)(F)F)cc(-n3cccc3)c2nc1O | > 25 |  | 
12 | O=C(O)CCn1c(=O)c(=O)[nH]c2cc([N+](=O)[O-])c(-n3cccc3)cc21 | 0.33 | > 30 | > 30
13 | NS(=O)(=O)c1cccc2c1c([N+](=O)[O-])cc1nc(O)c(O)nc12 [NBQX] |  | > 50 | > 50
14 | O=c1[nH]c2cc(-n3cccc3)c([N+](=O)[O-])cc2n(C2CCCCC2)c1=O | 25 |  | 
15 | CCn1c(=O)c(=O)[nH]c2cc([N+](=O)[O-])c(-n3cccc3)cc21 | 0.85 | 12 | > 50
16 | O=c1[nH]c2cc(C(F)(F)F)c(-n3cccc3)cc2n(C2CCCCC2)c1=O | 1.6 |  | 
17 | O=C(O)Cn1c(=O)c(=O)[nH]c2cc([N+](=O)[O-])c(-n3cccc3)cc21 | 0.07 | 30 | 30
18 | O=[N+]([O-])c1cc2nc(O)c(O)nc2cc1-n1cccc1 | 0.4 | 31 | 21
19 | Oc1nc2cc(-n3cccc3)c(C(F)(F)F)cc2nc1O | 3 |  | 
20 | CNC(=O)Cn1c(=O)c(=O)[nH]c2cc(C(F)(F)F)c(-n3cccc3)cc21 | 20 |  | 
21 | Oc1nc2cc(Cl)c(-n3cccc3)cc2nc1O | 20 |  | 
22 | CCNC(=O)Cn1c(=O)c(=O)[nH]c2cc([N+](=O)[O-])c(-n3cccc3)cc21 | 2.7 |  | 
23 | O=C(Cn1c(=O)c(=O)[nH]c2cc([N+](=O)[O-])c(-n3cccc3)cc21)NCCc1ccccc1 | 20 |  | 
24 | CCOC(=O)CCn1c(=O)c(=O)[nH]c2cc(C(F)(F)F)c(-n3cccc3)cc21 | 0.58 |  | 
25 | O=C(O)Cn1c(=O)c(=O)[nH]c2cc(C(F)(F)F)c(-n3cccc3)cc21 | 0.17 | > 50 | > 50
26 | O=C(Cn1c(=O)c(=O)[nH]c2cc([N+](=O)[O-])c(-n3cccc3)cc21)NCc1ccccc1 | 20 |  | 
27 | O=C(CCn1c(=O)c(=O)[nH]c2cc(C(F)(F)F)c(-n3cccc3)cc21)NCc1ccccc1 | 8 |  | 
